This experiment has as its target Bromodomain-containing protein 4 (Homo sapiens, UniProt O60885). The experiment in a line: AlphaLISA Assay: Compounds were diluted by step-down dilution method (final concentration of DMSO was 1%) and added to the wells of a 384 well opti plate at desired concentrations. 5 nM BDR4-BD1 enzyme (produced in-house) and 12 nM of biotinylated substrate were added to the wells, covered and incubated at room temperature (RT) for 1 h. At the end of 1 h 250 ng of GSH acceptor beads were added to the well and incubated for 1 h at RT; then 500 ng of streptavidin donor beads were added and incubated again for 1 h at RT. Plates were read in a Pherastar reader at 680 nm excitation and 570 nm emission. Background: Alpha assays give light when donor and acceptor beads are brought close together.

Molecules are shown by their SMILES.

With `CCNC(=O)CC1N=C(c2ccc(Cl)cc2)c2cc(OC)ccc2-c2cn(C)c(=O)cc21` (racemic), the half-maximal inhibitory concentration (IC50) – broadly, the concentration that inhibits the measured activity by half – came to 1.6 nM.
